Reference: the SangsterLogP compilation

| Compound | logP |
| --- | --- |
| COC(=O)[C@@H](N)Cc1ccc(O)c(O)c1 | -0.28 |
| CC(C)OC(=O)[C@@H](N)Cc1ccc(O)c(O)c1 | 0.52 |
| CCOC(=O)[C@@H](N)Cc1ccc(O)cc1 | 0.6 |
| CCC(C)OC(=O)[C@@H](N)Cc1ccc(O)cc1 (stereo partly drawn) | 1.59 |
| N[C@@H](Cc1ccc(O)c(O)c1)C(=O)OC1CCOC1 (stereo partly drawn) | -0.45 |
| N[C@@H](Cc1ccc(O)c(O)c1)C(=O)OCC1CCCO1 (stereo partly drawn) | 0.01 |
| N[C@@H](Cc1ccc(O)cc1)C(=O)Oc1ccc([N+](=O)[O-])cc1 | 1.62 |
| CC(C)(C)OC(=O)N[C@@H](Cc1ccc(O)c(O)c1)C(=O)O | -1.86 |
| COC(=O)[C@@H](N)Cc1ccc(O)cc1 | 0.18 |
| CC(C)OC(=O)[C@@H](N)Cc1ccc(O)cc1 | 0.99 |
| CCC(C)OC(=O)[C@@H](N)Cc1ccc(O)c(O)c1 (stereo partly drawn) | 0.93 |
| CC(C)(C)OC(=O)[C@@H](N)Cc1ccc(O)c(O)c1 | 0.81 |
| N[C@@H](Cc1ccccc1)C(=O)OCc1ccccc1 | 2.48 |
